# Results: patent US20230303575A1, “FGFR AND MUTATION INHIBITOR THEREOF, PREPARATION METHOD THEREFOR AND USE THEREOF” (Abbisko Therapeutics Co., Ltd., priority 2020, published 2023)
# Legend:
# Assay type in all cases: cell-based
# FGFR2 V564F = biological target: T1, FGFR2 V564F (Homo sapiens, UniProt P21802, V564F); test: Cell proliferation assay for Tel-FGFR2 V564F in BaF3; conditions: BaF3 cells expressing FGFR2 V564F fusion, 48 hrs, CellTiter Glo
# T1 construct: P41212 (Transcription factor ETV6)
# Method: (§1) By transfection, cell strains of the intracellular kinase domain fusion protein of TEL-FGFR2 WT or the intracellular domain fusion proteins containing FGFR2 V564, V564F, V564L, N549K and K659M mutations were stably expressed in Baf cells. On day 1, the cell suspension was plated into a 96-well plate containing growth medium (DMEM containing 1% Glutamax, 10% FBS and 1% Pen/Strep) at 2000-4000 cells/90 μL/per well, and then the mixture was incubated overnight at 37° C. and 5% CO2. On day 2, 10 μL of growth medium containing a 10-fold stock solution of test compound was added to the cell culture (9 dose points, 3× serial dilution, starting from 1 μM, finally 0.3% DMSO). After incubation at 37° C. and 5% CO2 for 48 hrs, 50 μL of CellTiter Glo (CTG) reagent was added to the cell-containing 96-well plate on day 3, and the plate was then incubated at room temperature for 10 min. Then relative light units (RLUs) were measured on a microplate reader with a luminescence detection module. RLU values were normalized to % survival, and concentration-response curves were plotted using Prism to calculate IC50 (nM).
# FGFR3 V555M = biological target: T2, FGFR3 V555M (Homo sapiens, UniProt P22607, V555M); test: Cell proliferation assay for FGFR3 V555M in BaF3; conditions: BaF3 cells expressing FGFR3 V555M fusion, 48 hrs, CellTiter Glo
# T2 construct: P41212 (Transcription factor ETV6)
# Method: (§2) For the compounds of the Examples of the present invention, cell strains of TEL-FGFR3 WT intracellular kinase domain fusion protein or intracellular domain fusion protein containing FGFR3 V555M or FGFR3 N540K mutation were stably expressed in Baf cells by transfection and were used to determine the cell proliferation effect of BaF3-Tel-FGFR3 WT. FGFR3 V555M or FGFR3 N540K. The specific test process was as follows: • 1) The cell suspension was plated into a 96-well plate containing growth medium (DMEM containing 1% Glutamax, 10% FBS and 1% Pen/Strep) at 2000-4000 cells/90 μL/per well, and then the mixture was incubated overnight at 37° C. and 5% CO2. • 2) 10 μL of growth medium containing a 10-fold stock solution of test compound was added to the cell culture (9 dose points, 3× serial dilution, starting from 1 μM, finally 0.3% DMSO). • 3) The mixture was incubated at 37° C. and 5% CO2 for 48 hrs. • 4) 50 μL of CellTiter Glo (CTG) reagent was added to the cell-containing 96-well plate, and the plate was then incubated at room temperature for 10 min. • 5) Relative light units (RLUs) were measured on a microplate reader with a luminescence detection module. RLU values were normalized to % survival, and concentration-response curves were plotted using Prism to calculate IC50 (nM).
# FGFR3 N540K = biological target: T3, FGFR3 N540K (Homo sapiens, UniProt P22607, N540K); test: Cell proliferation assay for FGFR3 N540K in BaF3; conditions: BaF3 cells expressing FGFR3 N540K fusion, 48 hrs, CellTiter Glo
# T3 construct: P41212 (Transcription factor ETV6)
# Method: as §2
# FGFR2 K659M = biological target: T4, FGFR2 K659M (Homo sapiens, UniProt P21802, K659M); test: Cell proliferation assay for Tel-FGFR2 K659M in BaF3; conditions: BaF3 cells expressing FGFR2 K659M fusion, 48 hrs, CellTiter Glo
# T4 construct: P41212 (Transcription factor ETV6)
# Method: as §1
# FGFR2 V564I = biological target: T5, FGFR2 V564I (Homo sapiens, UniProt P21802, V564I); test: Cell proliferation assay for Tel-FGFR2 V564I in BaF3; conditions: BaF3 cells expressing FGFR2 V564I fusion, 48 hrs, CellTiter Glo
# T5 construct: P41212 (Transcription factor ETV6)
# Method: as §1
# FGFR2 V564L = biological target: T6, FGFR2 V564L (Homo sapiens, UniProt P21802, V564L); test: Cell proliferation assay for Tel-FGFR2 V564L in BaF3; conditions: BaF3 cells expressing FGFR2 V564L fusion, 48 hrs, CellTiter Glo
# T6 construct: P41212 (Transcription factor ETV6)
# Method: as §1
# FGFR2 N549K = biological target: T7, FGFR2 N549K (Homo sapiens, UniProt P21802, N549K); test: Cell proliferation assay for Tel-FGFR2 N549K in BaF3; conditions: BaF3 cells expressing FGFR2 N549K fusion, 48 hrs, CellTiter Glo
# T7 construct: P41212 (Transcription factor ETV6)
# Method: as §1
# T6 sequence (P21802 481-770 V564L limits assumed): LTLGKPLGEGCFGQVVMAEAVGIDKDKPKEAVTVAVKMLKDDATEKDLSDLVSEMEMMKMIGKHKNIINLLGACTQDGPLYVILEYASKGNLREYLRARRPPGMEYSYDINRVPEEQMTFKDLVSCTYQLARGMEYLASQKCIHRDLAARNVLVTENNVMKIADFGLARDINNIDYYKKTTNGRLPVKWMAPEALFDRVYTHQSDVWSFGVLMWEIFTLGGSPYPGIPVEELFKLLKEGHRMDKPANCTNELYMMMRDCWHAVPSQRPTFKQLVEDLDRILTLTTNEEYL
# T3 sequence (P22607 472-761 N540K limits assumed): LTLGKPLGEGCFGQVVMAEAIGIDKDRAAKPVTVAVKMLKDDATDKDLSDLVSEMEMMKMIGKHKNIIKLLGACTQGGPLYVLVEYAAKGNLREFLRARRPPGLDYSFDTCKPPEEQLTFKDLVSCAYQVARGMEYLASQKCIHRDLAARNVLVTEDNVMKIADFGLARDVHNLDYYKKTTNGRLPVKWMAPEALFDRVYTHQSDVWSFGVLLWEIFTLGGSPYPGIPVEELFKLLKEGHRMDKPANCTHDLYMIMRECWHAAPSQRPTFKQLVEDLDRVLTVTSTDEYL
# T5 sequence (P21802 481-770 V564I limits assumed): as the sequence (P21802 481-770 V564L limits assumed) above, with L84I counted along it
# T1 sequence (P21802 481-770 V564F limits assumed): as the sequence (P21802 481-770 V564L limits assumed) above, with L84F counted along it
# T7 sequence (P21802 481-770 N549K limits assumed): as the sequence (P21802 481-770 V564L limits assumed) above, with N69K, L84V counted along it
# T2 sequence (P22607 472-761 V555M limits assumed): as the sequence (P22607 472-761 N540K limits assumed) above, with K69N, V84M counted along it
# T4 sequence (P21802 481-770 K659M limits assumed): as the sequence (P21802 481-770 V564L limits assumed) above, with L84V, K179M counted along it
SMILES,IC50 (FGFR2 V564F),IC50 (FGFR3 V555M),IC50 (FGFR3 N540K),IC50 (FGFR2 K659M),IC50 (FGFR2 V564I),IC50 (FGFR2 V564L),IC50 (FGFR2 N549K)
"C=CC(=O)N1CC[C@H](n2nc(C#Cc3c(F)cc4oc(NC)nc4c3F)c3c(N)ncnc32)C1 [Example 67, (S)-1-(3-(4-amino-3-((4,6-difluoro-2-(methylamino)benzo[d]oxazol-5-yl)ethynyl)-1H-pyrazolo[3,4-d]pyrimidin-1-yl)pyrrolidin-1-yl)prop-2-en-1-one]",0.5 to 5 nM,0.5 to 5 nM,5 to 50 nM,,,,
"C=CC(=O)N1CC[C@H](n2nc(C#Cc3ccc4oc(C5CC5)nc4c3)c3c(N)ncnc32)C1 [Example 20, (S)-1-(3-(4-amino-3-((2-cyclopropylbenzo[d]oxazol-5-yl)ethynyl)-1H-pyrazolo [3,4-d]pyrimidin-1-yl)pyrrolidin-1-yl)prop-2-en-1-one]",0.5 to 5 nM,0.5 to 5 nM,0.5 to 5 nM,5 to 50 nM,≤ 0.5 nM,0.5 to 5 nM,0.5 to 5 nM
"C=CC(=O)N1CC[C@H](n2cc(C#Cc3c(F)cc4sc(C)nc4c3F)c3c(N)ncnc32)C1 [Example 75, (S)-1-(3-(4-amino-5-((4,6-difluoro-2-methylbenzo[d]thiazol-5-yl)ethynyl)-7H-pyrrolo[2,3-d]pyrimidin-7-yl)pyrrolidin-1-yl)prop-2-en-1-one]",0.5 to 5 nM,0.5 to 5 nM,,0.5 to 5 nM,≤ 0.5 nM,,
"C=CC(=O)N1CC[C@H](n2cc(C#Cc3ccc4oc(C5CC5)nc4c3)c3c(N)ncnc32)C1 [Example 1, (S)-1-(3-(4-amino-5-((2-cyclopropylbenzo[d]oxazol-5-yl)ethynyl)-7H-pyrrolo[2,3-d]pyrimidin-7-yl)pyrrolidin-1-yl)prop-2-en-1-one]",0.5 to 5 nM,0.5 to 5 nM,0.5 to 5 nM,0.5 to 5 nM,≤ 0.5 nM,0.5 to 5 nM,0.5 to 5 nM
"CN(C)C/C=C/C(=O)N1CC(n2nc(C#Cc3c(F)cc4oc(N5CCC5)nc4c3F)c3c(N)ncnc32)C1 [Example 77, (E)-1-(3-(4-amino-3-((2-(azetidin-1-yl)-4,6-difluorobenzo[d]oxazol-5-yl)ethynyl)-1H-pyrazolo[3,4-d]pyrimidin-1-yl)azetidin-1-yl)-4-(dimethylamino)but-2-en-1-one]",≤ 0.5 nM,0.5 to 5 nM,5 to 50 nM,5 to 50 nM,,0.5 to 5 nM,0.5 to 5 nM
"C=CC(=O)N1C[C@@H](n2nc(C#Cc3c(F)cc4sc(C5CC5)nc4c3F)c3c(N)ncnc32)C[C@@H]1COC [Example 68, 1-((2R,4S)-4-(4-amino-3-((2-cyclopropyl-4,6-difluoro-benzo[d]thiazol-5-yl)ethynyl)-1H-pyrazolo[3,4-d]pyrimidin-1-yl)-2-(methoxy-methyl)pyrrolidin-1-yl) prop-2-en-1-one]",≤ 0.5 nM,≤ 0.5 nM,0.5 to 5 nM,0.5 to 5 nM,,≤ 0.5 nM,≤ 0.5 nM

# Other lines, results leading:
IC50 (FGFR2 V564F),IC50 (FGFR3 V555M),IC50 (FGFR3 N540K),IC50 (FGFR2 K659M),IC50 (FGFR2 V564I),IC50 (FGFR2 V564L),IC50 (FGFR2 N549K),SMILES
≤ 0.5 nM,0.5 to 5 nM,0.5 to 5 nM,5 to 50 nM,≤ 0.5 nM,0.5 to 5 nM,0.5 to 5 nM,"C=CC(=O)N1CC[C@H](n2nc(C#Cc3c(F)cc4sc(C5CC5)nc4c3F)c3c(N)ncnc32)C1 [Example 62, (S)-1-(3-(4-amino-3-((2-cyclopropyl-4,6-difluoro-benzo[d]thiazol-5-yl)ethynyl)-1H-pyrazolo[3,4-d]pyrimidin-1-yl)pyrrolidin-1-yl) prop-2-en-1-one]"
≤ 0.5 nM,≤ 0.5 nM,5 to 50 nM,5 to 50 nM,,0.5 to 5 nM,0.5 to 5 nM,"CN(C)C/C=C/C(=O)N1CC(n2nc(C#Cc3c(F)cc4sc(C5CC5)nc4c3F)c3c(N)ncnc32)C1 [Example 78, (E)-1-(3-(4-amino-3-((2-cyclopropyl-4,6-difluoro-benzo[d]thiazol-5-yl)ethynyl)-1H-pyrazolo[3,4-d]pyrimidin-1-yl)azetidin-1-yl)-4-(dimethylamino)but-2-en-1-one]"
≤ 0.5 nM,≤ 0.5 nM,0.5 to 5 nM,5 to 50 nM,≤ 0.5 nM,0.5 to 5 nM,0.5 to 5 nM,"C=CC(=O)N1CC[C@H](n2nc(C#Cc3c(F)cc4oc(N5CCC5)nc4c3F)c3c(N)ncnc32)C1 [Example 74, (S)-1-(3-(4-amino-3-((2-(azetidin-1-yl)-4.6-difluoro-benzo[d]oxazol-5-yl)ethynyl)-1H-pyrazolo[3,4-d]pyrimidin-1-yl)pyrrolidin-1-yl)prop-2-en-1-one]"
